Measurements published in US6900202B2, “Di-substituted imineheterocyclic compounds” (priority 2000, dated 2005).

Tests used:
[1] = target: T1, α1β1γδ subtype of nicotinic acetylcholine receptors (Rattus norvegicus, UniProt P18916+P25108+P25109+P25110); assay: biochemical; format: binding
T1 construct: The centrifugation at 100,000×G for 60 minutes at 4° C. yielded the rat muscle extract as supernatant
From the text: (§1) The methods for evaluating the binding capabilities of the compounds against nicotinic acetylcholine receptors are different by subtypes of receptors. The binding capabilities of the compounds at α4β2 nicotinic acetylcholine receptors are examined using rat brain membrane obtained from whole homogenized brain, and determining the inhibiting rate of the compounds against [^3H]-cytisine binding to said brain membrane. Furthermore, the binding capabilities of the compounds at α1β1γδ nicotinic acetylcholine receptors are examined using homogenized rat muscle, and determining the inhibiting rate of the compounds against [^3H]-α-bungarotoxin binding to said muscle membrane.
(§2) Binding Assays at α1β1γδ Subtype of Nicotinic Acetylcholine Receptors
(§3) The affinity of the compounds of the present invention to α1β1γδ subtype of nicotinic acetylcholine receptors was measured by the following method, which was modified method described by Garcha H. S., Thomas P., Spivak C.
(§4) (1) Preparation of Rat Skeletal Muscles Containing α1β1γδ Subtype of Nicotinic Acetylcholine Receptors
(§5) The substantially same animals described in the Biological Experiment 1 were used.
(§6) The isolation of α1β1γδ subtype of nicotinic acetylcholine receptors was performed as follow. That is, rat posterior skeletal muscles were isolated just after sacrificed by decapitation, washed with ice-cooled saline solution and then frozen at −80° C. with liquid nitrogen and stored till using. After thawing the frozen muscles, tissue was homogenized (40% w/v) with buffer solution [2.5 mM of sodium phosphate buffer (pH:7.2), 90 mM of NaCl, 2 mM of KCl, 1 mM of EDTA, 2 mM of benzamidine, 0.1 mM of benzethonium chloride, 0.1 mM of PMSF, 0.01% of sodium azide] in Waring blender [Waring blender 34BL97; WARING PRODUCTS DIVISION DYNAMICS CORPORATION OF AMERICA) for 60 seconds. The homogenate were centrifuged under 20,000×G for 60 minutes at 4° C. The supernatant was separated and the resulting pellet was added to the same buffer (1.5 ml/g wet weight), and homogenized under the same conditions. Triton X100 (2% w/v) was added and the mixture was stirred for 3 hours at 4° C. The centrifugation at 100,000×G for 60 minutes at 4° C. yielded the rat muscle extract as supernatant. This was stored at 4° C. for up to 4 weeks, and used for binding assays at receptors.
(§7) (2) Experiments of α1β1γδ Subtype of Nicotinic Acetylcholine Receptors Binding
(§8) Receptors binding experiments were performed as follow. That is, the extract of rat muscle containing 600-900 μg of protein was added to test tubes containing test compounds and incubated for 15 minutes at 37° C. Then, to this mixture was added 1 nM of [^3H]-α-bungarotoxin (α-Bgt) and further incubated for 2 hours. The samples were isolated by vacuum filtration onto Whatman GF/B filters, which were prerinsed with 0.5% polyethylenimine just prior to sample filtration, using Brandel multi manifold cell harvester. The filters were rapidly rinsed with washing solution (10 mM of KH2PO4, 150 mM of NaCl, pH 7.2, room temperature) (5×1 ml). The filters were counted in 3 ml of clearsol I (Nacalai Tesque Inc.). The determination of nonspecific binding was incubated in the presence of 1 μM α-Bgt. […] In the receptor binding experiments, said buffer solution was added for adjusting the final concentration of BSA to be 0.05%.
(§9) The analyses of the experimental results were conducted by as described in the Biological Experiment 1.

[2] = target: T2, α1β1γδ subtype of nicotinic acetylcholine receptors (Rattus norvegicus, UniProt P25108); assay: biochemical; format: binding; conditions: % of control binding remaining
T2 construct: The centrifugation at 100,000×G for 60 minutes at 4° C. yielded the rat muscle extract as supernatant
T2 sequence (P25108 21-457): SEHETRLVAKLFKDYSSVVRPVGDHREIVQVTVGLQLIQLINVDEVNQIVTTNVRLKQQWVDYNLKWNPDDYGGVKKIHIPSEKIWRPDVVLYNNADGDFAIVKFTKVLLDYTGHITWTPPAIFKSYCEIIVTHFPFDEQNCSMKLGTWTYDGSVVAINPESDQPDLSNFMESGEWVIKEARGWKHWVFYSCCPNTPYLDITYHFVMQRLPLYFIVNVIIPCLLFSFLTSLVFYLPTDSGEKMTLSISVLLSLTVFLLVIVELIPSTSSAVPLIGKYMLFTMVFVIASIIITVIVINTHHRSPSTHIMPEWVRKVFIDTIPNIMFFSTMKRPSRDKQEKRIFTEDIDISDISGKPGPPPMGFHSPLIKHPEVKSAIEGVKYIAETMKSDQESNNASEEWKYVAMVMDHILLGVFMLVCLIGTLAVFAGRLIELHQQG
T2 sequence (P25109 24-501, further chain): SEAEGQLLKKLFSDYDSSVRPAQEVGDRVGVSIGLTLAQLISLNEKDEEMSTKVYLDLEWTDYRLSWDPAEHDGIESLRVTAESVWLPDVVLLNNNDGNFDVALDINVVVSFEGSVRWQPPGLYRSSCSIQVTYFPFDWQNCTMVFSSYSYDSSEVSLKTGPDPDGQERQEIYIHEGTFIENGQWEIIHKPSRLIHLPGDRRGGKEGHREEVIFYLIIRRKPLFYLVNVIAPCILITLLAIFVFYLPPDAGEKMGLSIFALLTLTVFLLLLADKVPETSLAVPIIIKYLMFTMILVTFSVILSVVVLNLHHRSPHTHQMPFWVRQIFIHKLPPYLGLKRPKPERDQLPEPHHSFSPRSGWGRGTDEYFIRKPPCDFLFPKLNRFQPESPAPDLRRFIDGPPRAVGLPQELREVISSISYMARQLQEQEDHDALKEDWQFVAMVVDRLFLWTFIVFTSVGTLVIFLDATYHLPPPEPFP
T2 sequence (P25110 22-517, further chain): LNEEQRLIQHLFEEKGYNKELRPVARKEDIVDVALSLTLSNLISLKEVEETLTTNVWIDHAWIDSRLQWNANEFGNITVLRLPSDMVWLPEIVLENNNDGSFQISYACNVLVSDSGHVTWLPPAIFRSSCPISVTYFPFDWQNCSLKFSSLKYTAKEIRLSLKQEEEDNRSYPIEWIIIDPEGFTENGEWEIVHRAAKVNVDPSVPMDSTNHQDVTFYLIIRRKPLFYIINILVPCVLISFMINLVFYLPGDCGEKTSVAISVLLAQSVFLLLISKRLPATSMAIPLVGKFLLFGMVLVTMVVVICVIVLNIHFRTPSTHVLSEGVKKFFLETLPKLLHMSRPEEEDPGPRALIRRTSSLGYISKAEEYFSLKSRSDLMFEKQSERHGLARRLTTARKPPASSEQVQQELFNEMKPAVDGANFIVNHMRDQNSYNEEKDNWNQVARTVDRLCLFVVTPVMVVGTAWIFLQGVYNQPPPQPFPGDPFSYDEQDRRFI
From the text: as §1, §2, §3, §4, §5, §6, §7, §8, §9

T1 sequence (P25108 21-457): as the sequence (P25108 21-457) above
T1 sequence (P25109 24-501): as the sequence (P25109 24-501, further chain) above
T1 sequence (P25110 22-517): as the sequence (P25110 22-517, further chain) above

SMILES | Ki [1] [µM] | control % of [3H]-α-Bgt binding at 100 μM of test compound ([2]; 100 μM test compound) [%] | control % of [3H]-α-Bgt binding at 1,000 μM of test compound ([2]; 1,000 μM test compound) [%]
Clc1ccc(C/N=C2\SCCN2Cc2ccc(Cl)nc2)cn1 [Compound 1, 3-(6-chloro-3-pyridyl)methyl-2-[(6-chloro-3-pyridyl)methyl]iminothiazolidine] | 420 | – | –
Cn1ccn(Cc2ccc(Cl)nc2)c1=N [Compound 13, 1-(6-chloro-3-pyridyl)methyl-2-imino-3-methyl-2,3-dihydroimidazole] | 320 | – | –
Clc1ccc(C/N=C2\OCCCN2Cc2ccc(Cl)nc2)cn1 [Compound 2, 3-(6-chloro-3-pyridyl)methyl-2-[(6-chloro-3-pyridyl)-methyl]imino-3,4,5,6-tetrahydro-2H-1,3-oxazine] | – | 95 | 56
Clc1ccc(C/N=c2\sccn2Cc2ccc(Cl)nc2)cn1 [Compound 8, 3-(6-chloro-3-pyridyl)methyl-2-[(6-chloro-3-pyridyl)methyl]imino-2,3-dihydrothiazole] | 840 | – | –
